Assay [1] addresses T1, Endothelin receptor type B (Homo sapiens, UniProt P24530).
T1 sequence (P24530 whole entry): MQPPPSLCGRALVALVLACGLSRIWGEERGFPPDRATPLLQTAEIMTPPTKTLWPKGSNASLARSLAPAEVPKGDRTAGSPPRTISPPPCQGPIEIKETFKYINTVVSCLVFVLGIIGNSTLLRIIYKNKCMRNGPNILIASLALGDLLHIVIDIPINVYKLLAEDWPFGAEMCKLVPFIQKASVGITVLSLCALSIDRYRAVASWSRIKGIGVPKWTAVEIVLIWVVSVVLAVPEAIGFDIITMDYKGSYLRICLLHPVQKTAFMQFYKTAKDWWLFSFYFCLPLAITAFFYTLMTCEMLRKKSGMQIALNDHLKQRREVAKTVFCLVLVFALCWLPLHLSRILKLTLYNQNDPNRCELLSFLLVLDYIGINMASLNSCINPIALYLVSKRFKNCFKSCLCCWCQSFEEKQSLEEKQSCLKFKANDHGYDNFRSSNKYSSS
The assay is described as follows: Affinity for human endothelin B receptor expressed in CHO-K1 cells. The format is cell-based.

The next assay concerns the target T2, Endothelin-1 receptor (Homo sapiens, UniProt P25101).
T2 sequence (P25101 whole entry): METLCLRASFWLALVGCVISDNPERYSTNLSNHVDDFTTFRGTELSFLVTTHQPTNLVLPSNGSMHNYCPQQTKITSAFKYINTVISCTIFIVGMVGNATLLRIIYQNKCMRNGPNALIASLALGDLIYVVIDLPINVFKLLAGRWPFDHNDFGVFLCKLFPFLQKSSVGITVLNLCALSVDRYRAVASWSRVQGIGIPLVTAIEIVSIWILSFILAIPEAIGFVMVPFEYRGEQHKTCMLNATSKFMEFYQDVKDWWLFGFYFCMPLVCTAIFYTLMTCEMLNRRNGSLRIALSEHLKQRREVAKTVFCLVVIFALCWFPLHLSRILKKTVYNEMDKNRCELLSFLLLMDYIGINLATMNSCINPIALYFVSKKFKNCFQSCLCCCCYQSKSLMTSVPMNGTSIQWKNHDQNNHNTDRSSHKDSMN
The assay is described as follows: Affinity for human endothelin A receptor expressed in Ltk cells. Format: cell-based.

Assay [2] deals with T1, Endothelin receptor type B. Put plainly: Inhibition of sarafotoxin-6c stimulated vasoconstriction in rabbit pulmonary artery. The format is functional, Oryctolagus cuniculus. Conditions: target entry is the homologue from another species; read-out: pA2 (converted).
Assay [3] addresses T3, Endothelin receptor, ET-A/ET-B (Homo sapiens, UniProt P24530+P25101).
T3 sequence (P24530 whole entry): T1 sequence (P24530 whole entry)
T3 sequence (P25101 whole entry): T2 sequence (P25101 whole entry)
Put plainly: In vitro inhibition of ET-1 stimulated vasoconstriction in rabbit femoral artery. The format is functional, tissue-based, Oryctolagus cuniculus. To be noted: target entry is the homologue from another species.

`COc1cccc(Sc2c(C(=O)O)n(Cc3ccccc3)c3ccccc23)c1` yielded an IC50 in assay [1] of 15000 nM.
Turning to `COc1cccc(Sc2c(C(=O)O)n(Cc3ccc4c(c3)OCO4)c3ccccc23)c1`, the IC50 against Endothelin-1 receptor was determined as 86 nM.
`COc1cccc(Sc2c(C(=O)O)oc3ccccc23)c1` had an IC50 in assay [1] of over 25000 nM.
With `CC(C)Oc1c(C(=O)O)sc2ccc(OCc3ccccc3)cc12`, the results for the half-maximal inhibitory concentration (IC50) (in assay [1]; against Endothelin-1 receptor) were over 100000 nM and 8800 nM, respectively.
`COc1cccc(Sc2c(C(=O)O)n(Cc3ccc4c(c3)OCO4)c3cc4c(cc23)OCO4)c1`: in assay [1], the IC50 was determined as 760 nM.
As for `COc1cccc(Sc2c(C(=O)O)n(Cc3ccc4c(c3)OCO4)c3cc(OCc4ccccc4)c(OC)cc23)c1`, the IC50 is 1600 nM in assay [1] and 20000 nM against Endothelin-1 receptor.
The like results for `COc1cccc(Sc2c(C(=O)O)n(Cc3ccccc3)c3cc(OC)c(OC)cc23)c1` were, in that order, 870 nM and 160 nM.
Regarding `COc1cccc(Sc2c(C(=O)O)n(Cc3cc(OC)c4c(c3)OCO4)c3cc4c(cc23)OCO4)c1`, the IC50 in assay [1] is 29000 nM.
Consider `COc1ccc(Sc2c(C(=O)O)n(Cc3ccc4c(c3)OCO4)c3cc4c(cc23)OCO4)cc1OC`, for which the Kb in assay [2] is 631 nM. The compound further yielded a pA2 in assay [3] of 6.3. The same compound yielded an IC50 against Endothelin-1 receptor of 41 nM.
`COc1cccc(Sc2c(C(=O)O)sc3ccccc23)c1` had an IC50 in assay [1] of over 25000 nM.
For `COc1cc2c(Sc3cc(OC)c(OC)c(OC)c3)c(C(=O)O)n(Cc3ccc4c(c3)OCO4)c2cc1OCc1ccccc1`, the IC50 (in assay [1]; at Endothelin-1 receptor) was over 2500 nM in each case.
As to `O=C(O)c1c(Sc2ccc3c(c2)OCO3)c2cc3c(cc2n1Cc1ccc2c(c1)OCO2)OCO3`, the IC50 in assay [1] was found to be 420 nM; at Endothelin-1 receptor it was 100 nM.
As to `COc1cc2c(Sc3ccc4c(c3)OCO4)c(C(=O)O)n(Cc3ccc4c(c3)OCO4)c2cc1OCc1ccccc1`, the 50% inhibitory concentration (IC50) amounted to 490 nM in assay [1] and 620 nM against Endothelin-1 receptor.

As usually defined, the IC50 is the point on the concentration scale where inhibition reaches its midpoint. A low value points to greater potency. The pA2 is a measure of antagonist potency on a negative log scale.

The values are drawn from ChEMBL document CHEMBL1129097, “1-benzyl-3-thioaryl-2-carboxyindoles as potent non-peptide endothelin antagonists” (Bioorg Med Chem Lett, 1996).
